Reference: PMC9334755 (Cancer Biology & Medicine, 2021)
pIC50: −log10 of the molar value. Where two headings read alike, the source gives them in different places.

Tests used:
[1] = dog
[2] = biological target: JAK3 (Homo sapiens, UniProt P52333); experiment: HTRF kinase assay, JAK3
Method: (§9) Homogeneous time-resolved fluorescence (HTRF) assays were performed with a HTRF® KinEASE™-TK kit (Trevigen).

[3] = biological target: LCK (Homo sapiens, UniProt P06239); experiment: Protein kinase panel at 1 µM, LCK; assay type: biochemical
[4] = biological target: CYP2D6 (Homo sapiens, UniProt P10635); assay type: in vitro ADME
Description: Table S8 Inhibition of CYP isozymes by SY-1530 […]
(§1) (1 picture or pasted object on this page, not shown here)

[5] = monkey
[6] = biological target: RET (Homo sapiens, UniProt P07949); experiment: Protein kinase panel at 1 µM, RET; assay type: biochemical
[7] = system: T cell; experiment: Cell viability assay (CellTiter-Blue), human T cells; assay type: cell-based; settings: read-out: IC50 (nM), growth of T cell
Method: (§2) Cells were seeded on 96-well plates (9,000 cells/well), cultured at 37 °C in 5% CO2 overnight, and incubated with different concentrations of compounds for 3 or 7 days. Then the cells were stained with CellTiter-Blue® reagent (Promega) for 4 h at 37 °C. The fluorescence signals were detected with a FlexStation 3, and the IC50 values of each compound were determined with GraFit software (Version 6.0).
(§3) CD19^+ B (>80% purity) and CD3^+ T (>90% purity) cells were purified with human B cell enrichment cocktail and human T cell enrichment cocktail (Stem Cell Technology), respectively. Cells were seeded on 12-well plates and incubated with different concentrations of BTK inhibitors for 1 h. B cells were stimulated with 50 µg/mL anti-human IgM F(ab′)2, and T cells were stimulated with 50 µg/mL anti-CD3/CD28 beads overnight. In the washout groups, the cell medium containing the indicated inhibitors was replaced with fresh medium before stimulation. Then cells were then incubated with anti-human CD69 for 1 h and analyzed with a Guava flow cytometer.

[8] = biological target: EPHA3 (Homo sapiens, UniProt P29320); experiment: Protein kinase panel at 1 µM, EPHA3; assay type: biochemical
[9] = dog, in vivo
[10] = biological target: BLK (Homo sapiens, UniProt P51451); experiment: Protein kinase panel at 1 µM, BLK; assay type: biochemical
[11] = rat
[12] = biological target: HCK (Homo sapiens, UniProt P08631); experiment: Protein kinase panel at 1 µM, HCK; assay type: biochemical
[13] = system: TMD8; experiment: Cell viability assay (CellTiter-Blue), TMD8; assay type: cell-based, human; settings: TMD8 cells; read-out: IC50 (nM), growth of TMD8
Method: as §2

[14] = system: Caco-2; settings: human
Description: protein kinases Beagle dog PK
Kinase Inhibition (%) Kinase Inhibition (%) IV Oral
Species Plasma protein binding (%)
Tcells, and B-cell lymphoma
Compound Caco-2 permeability assay
as §1

[15] = biological target: CYP2C8 (Homo sapiens, UniProt P10632); assay type: in vitro ADME
Description: (§4) Cancer Biol Med Vol 19, No 7 July 2022 3
(§5) Table S8 Inhibition of CYP isozymes by SY-1530
(§6) Table S9 Preclinical safety of SY-1530
(§7) Group Single-dose toxicity Multiple-dose toxicity
(§8) Animal Rat Beagle dog Rat Beagle dog
as §1

[16] = biological target: CYP2C9 (Homo sapiens, UniProt P11712); assay type: in vitro ADME
Description: as §4, §5, §6, §7, §8, §1

[17] = biological target: CYP1A2 (Homo sapiens, UniProt P05177); assay type: in vitro ADME
Description: as §4, §5, §6, §7, §8, §1

[18] = system: human peripheral B cells; experiment: CD69 up-regulation in B cells after anti-IgM stimulation; assay type: cell-based
Method: as §3
Figure 4 SY-1530 blocks B-cell receptor signaling and induces apoptosis. (A–D) Human B and T cells were purified and incubated with different concentrations of BTK inhibitors for 1 h. B cells were stimulated with 50 μg/mL anti-human IgM F(ab′)2, and T cells were stimulated with 50 μg/mL anti-CD3/CD28 beads overnight directly or after washout of BTK inhibitors before stimulation. The percentage of CD69 positive cells was analyzed by flow cytometry. Data are shown as the mean ± SEM (n = 3). Statistical analysis was performed with Student’s t-test (*P < 0.05, **P < 0.01, ***P < 0.001). (E) Pfeiffer cells and Romas cells were preincubated with different concentrations of compounds for 1 h, washed with PBS, and then stimulated with anti-IgM/anti-IgG (10 μg/mL) for 10 min. Cells were lysed and analyzed by Western blot with the indicated antibodies. (F) Pfeiffer cells were treated with various concentrations of SY-1530 for 24 h. The cells were stained with both PE-Annexin and 7-AAD and analyzed by flow cytometry. Data are shown as the mean ± SEM (n = 3). Statistical analysis was performed with Student’s t-test (*P < 0.05, **P < 0.01). (G) Pfeiffer cells were incubated with BTK inhibitors in the presence of z-VAD-fmk (caspase inhibitor) or DMSO for 24 h. Cells were lysed and analyzed with specific antibodies.

[19] = biological target: FGFR3 (Homo sapiens, UniProt P22607); experiment: Protein kinase panel at 1 µM, FGFR3; assay type: biochemical
[20] = biological target: FLT3 (Homo sapiens, UniProt P36888); experiment: Protein kinase panel at 1 µM, FLT3; assay type: biochemical
[21] = biological target: EGFR (Homo sapiens, UniProt P00533); experiment: HTRF kinase assay, EGFR
Method: as §9

[22] = biological target: TEC (Homo sapiens, UniProt P42680); experiment: HTRF kinase assay, TEC
Method: as §9

[23] = IC50 SY-1530 over IC50 ibrutinib

Sequence of EGFR (P00533 25-1210): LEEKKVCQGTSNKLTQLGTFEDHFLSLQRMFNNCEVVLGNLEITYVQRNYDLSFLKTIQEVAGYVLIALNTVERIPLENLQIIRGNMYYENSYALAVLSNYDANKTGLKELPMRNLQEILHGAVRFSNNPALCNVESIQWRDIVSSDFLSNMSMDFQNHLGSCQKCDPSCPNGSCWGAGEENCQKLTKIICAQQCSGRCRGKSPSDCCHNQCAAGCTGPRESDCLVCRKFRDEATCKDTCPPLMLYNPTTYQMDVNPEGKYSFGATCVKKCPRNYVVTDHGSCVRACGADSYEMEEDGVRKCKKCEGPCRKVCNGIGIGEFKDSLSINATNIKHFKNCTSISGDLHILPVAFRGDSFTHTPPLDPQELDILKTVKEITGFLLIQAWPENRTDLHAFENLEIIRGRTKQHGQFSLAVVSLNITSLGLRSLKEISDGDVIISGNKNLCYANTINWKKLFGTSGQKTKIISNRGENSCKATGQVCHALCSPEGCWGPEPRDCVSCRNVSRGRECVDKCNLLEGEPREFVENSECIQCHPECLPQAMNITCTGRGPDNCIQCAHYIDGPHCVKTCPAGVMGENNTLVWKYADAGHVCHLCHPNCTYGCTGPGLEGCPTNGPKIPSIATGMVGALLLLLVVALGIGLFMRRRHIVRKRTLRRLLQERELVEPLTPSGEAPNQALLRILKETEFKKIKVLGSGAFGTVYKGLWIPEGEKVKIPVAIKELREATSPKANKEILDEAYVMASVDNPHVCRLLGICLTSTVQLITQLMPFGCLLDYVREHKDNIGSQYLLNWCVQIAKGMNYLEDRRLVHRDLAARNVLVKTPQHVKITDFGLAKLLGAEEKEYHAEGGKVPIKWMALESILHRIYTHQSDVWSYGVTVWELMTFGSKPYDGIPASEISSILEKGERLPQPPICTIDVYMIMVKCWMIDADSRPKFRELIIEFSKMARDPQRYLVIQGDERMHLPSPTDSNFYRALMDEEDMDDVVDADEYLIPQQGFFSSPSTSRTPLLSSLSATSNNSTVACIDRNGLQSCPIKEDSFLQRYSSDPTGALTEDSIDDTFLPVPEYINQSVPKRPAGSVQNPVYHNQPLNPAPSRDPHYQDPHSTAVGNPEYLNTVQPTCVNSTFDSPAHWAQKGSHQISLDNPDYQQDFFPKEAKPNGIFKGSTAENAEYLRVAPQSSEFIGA
Sequence of TEC (P42680 whole entry): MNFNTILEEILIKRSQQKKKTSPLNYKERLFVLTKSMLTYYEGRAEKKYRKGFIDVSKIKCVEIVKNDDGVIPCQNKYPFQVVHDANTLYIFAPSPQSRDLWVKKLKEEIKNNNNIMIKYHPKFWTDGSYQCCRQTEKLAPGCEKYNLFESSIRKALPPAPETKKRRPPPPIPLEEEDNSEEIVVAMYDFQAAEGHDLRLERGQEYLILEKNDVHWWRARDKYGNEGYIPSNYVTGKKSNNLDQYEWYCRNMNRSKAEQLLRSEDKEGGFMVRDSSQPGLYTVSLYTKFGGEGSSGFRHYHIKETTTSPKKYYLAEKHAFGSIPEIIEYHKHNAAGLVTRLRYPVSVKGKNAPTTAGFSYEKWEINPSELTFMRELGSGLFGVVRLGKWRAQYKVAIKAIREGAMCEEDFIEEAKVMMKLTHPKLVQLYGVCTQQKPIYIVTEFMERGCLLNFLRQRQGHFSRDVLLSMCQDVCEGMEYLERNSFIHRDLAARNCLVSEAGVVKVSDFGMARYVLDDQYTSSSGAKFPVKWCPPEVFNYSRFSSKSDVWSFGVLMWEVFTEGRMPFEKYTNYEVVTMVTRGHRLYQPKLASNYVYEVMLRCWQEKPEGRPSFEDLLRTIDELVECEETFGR
Sequence of JAK3 (P52333 whole entry): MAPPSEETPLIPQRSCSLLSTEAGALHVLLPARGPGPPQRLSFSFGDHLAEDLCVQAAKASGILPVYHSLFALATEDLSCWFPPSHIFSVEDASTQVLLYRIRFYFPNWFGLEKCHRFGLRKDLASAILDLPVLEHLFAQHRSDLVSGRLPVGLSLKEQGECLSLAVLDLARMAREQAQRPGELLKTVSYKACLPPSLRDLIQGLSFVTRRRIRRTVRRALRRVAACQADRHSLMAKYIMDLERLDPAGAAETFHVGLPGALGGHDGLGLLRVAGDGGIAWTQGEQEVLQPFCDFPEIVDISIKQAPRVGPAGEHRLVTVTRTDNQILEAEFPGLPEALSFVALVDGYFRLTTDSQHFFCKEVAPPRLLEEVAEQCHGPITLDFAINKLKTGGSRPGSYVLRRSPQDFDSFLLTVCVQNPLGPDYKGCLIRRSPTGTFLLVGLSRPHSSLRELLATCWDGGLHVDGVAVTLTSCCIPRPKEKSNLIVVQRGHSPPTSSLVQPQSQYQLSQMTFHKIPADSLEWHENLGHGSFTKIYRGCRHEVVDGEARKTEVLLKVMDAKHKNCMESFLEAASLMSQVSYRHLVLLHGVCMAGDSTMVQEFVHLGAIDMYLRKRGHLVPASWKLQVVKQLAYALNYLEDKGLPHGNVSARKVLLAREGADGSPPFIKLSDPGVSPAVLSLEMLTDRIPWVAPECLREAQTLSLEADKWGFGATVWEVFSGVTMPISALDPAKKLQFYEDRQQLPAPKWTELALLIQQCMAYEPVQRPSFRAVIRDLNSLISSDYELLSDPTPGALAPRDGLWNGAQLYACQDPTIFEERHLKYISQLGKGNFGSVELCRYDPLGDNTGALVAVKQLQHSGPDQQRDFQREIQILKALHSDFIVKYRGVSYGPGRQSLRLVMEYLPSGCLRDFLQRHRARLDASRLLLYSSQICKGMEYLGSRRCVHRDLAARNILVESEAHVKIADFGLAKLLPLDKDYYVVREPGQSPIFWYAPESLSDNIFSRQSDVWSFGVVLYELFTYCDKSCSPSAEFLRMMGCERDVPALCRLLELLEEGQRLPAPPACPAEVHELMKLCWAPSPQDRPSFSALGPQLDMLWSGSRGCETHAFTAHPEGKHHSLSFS
Sequence of CYP2C8 (P10632 whole entry): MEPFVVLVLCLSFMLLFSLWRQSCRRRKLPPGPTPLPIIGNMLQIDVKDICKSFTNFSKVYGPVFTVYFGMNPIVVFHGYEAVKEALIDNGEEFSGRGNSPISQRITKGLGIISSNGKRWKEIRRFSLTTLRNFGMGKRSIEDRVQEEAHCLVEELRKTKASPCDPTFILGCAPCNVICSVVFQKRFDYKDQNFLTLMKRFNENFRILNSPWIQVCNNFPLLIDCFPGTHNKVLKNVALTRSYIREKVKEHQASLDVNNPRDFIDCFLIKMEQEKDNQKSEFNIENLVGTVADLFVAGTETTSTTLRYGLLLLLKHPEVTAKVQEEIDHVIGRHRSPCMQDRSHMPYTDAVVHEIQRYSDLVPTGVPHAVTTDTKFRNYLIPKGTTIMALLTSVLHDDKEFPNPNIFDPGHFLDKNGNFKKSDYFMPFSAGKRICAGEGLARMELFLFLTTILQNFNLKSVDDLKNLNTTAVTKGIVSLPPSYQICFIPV
Sequence of CYP2C9 (P11712 whole entry): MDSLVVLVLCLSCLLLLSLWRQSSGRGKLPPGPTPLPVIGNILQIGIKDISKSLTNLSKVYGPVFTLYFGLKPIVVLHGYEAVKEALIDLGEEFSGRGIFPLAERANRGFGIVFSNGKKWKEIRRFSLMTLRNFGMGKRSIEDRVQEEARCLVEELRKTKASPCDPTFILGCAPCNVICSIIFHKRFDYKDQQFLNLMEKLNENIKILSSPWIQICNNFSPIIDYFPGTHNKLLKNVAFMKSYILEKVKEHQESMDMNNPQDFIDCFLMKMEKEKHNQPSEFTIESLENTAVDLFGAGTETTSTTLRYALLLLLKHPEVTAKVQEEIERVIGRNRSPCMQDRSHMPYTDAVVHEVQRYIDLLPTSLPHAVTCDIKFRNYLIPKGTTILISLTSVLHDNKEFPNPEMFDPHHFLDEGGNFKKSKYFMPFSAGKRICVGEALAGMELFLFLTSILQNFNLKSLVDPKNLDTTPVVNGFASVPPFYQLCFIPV
Sequence of CYP2D6 (P10635 whole entry): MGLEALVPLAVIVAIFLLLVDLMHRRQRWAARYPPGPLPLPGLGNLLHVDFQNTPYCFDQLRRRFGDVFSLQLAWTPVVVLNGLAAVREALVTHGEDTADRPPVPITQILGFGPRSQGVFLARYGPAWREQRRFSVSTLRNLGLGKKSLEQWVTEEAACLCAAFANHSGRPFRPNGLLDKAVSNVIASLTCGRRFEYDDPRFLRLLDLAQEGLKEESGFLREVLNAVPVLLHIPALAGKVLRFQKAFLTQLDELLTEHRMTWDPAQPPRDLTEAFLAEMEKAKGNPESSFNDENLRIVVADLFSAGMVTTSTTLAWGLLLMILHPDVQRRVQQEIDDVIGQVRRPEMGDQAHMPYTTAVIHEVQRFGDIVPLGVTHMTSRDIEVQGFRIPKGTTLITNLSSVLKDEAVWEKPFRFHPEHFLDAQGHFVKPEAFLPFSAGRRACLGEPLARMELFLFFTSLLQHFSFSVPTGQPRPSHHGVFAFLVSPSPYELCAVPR
Sequence of BLK (P51451 whole entry): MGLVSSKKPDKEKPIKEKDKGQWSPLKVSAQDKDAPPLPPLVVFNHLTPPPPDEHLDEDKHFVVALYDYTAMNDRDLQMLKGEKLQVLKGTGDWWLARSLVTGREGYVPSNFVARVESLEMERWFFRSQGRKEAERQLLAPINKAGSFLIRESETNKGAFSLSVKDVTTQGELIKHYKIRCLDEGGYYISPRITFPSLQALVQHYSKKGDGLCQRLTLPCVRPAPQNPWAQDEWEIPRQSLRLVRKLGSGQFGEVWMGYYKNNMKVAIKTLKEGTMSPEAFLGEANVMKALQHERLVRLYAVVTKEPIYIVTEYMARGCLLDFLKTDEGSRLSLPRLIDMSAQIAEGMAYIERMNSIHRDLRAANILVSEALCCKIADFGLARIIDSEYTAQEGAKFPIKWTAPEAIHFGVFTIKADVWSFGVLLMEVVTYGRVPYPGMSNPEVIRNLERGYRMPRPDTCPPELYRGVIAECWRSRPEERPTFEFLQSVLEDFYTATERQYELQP

COC/C=C/C(=O)N1CC[C@@H](n2nc(-c3ccc(Oc4ccccc4)cc3)c(C(N)=O)c2N)C1 [SY-1530]
Plasma protein binding (%) [1]: 95.5%
Ratio, JAK3 [2, 23]: > 27
IC50 ([2]; read-out: IC50 (nM), JAK3, HTRF): > 10000 nM
Inhibition (%), LCK [3]: 94%
pIC50 [4]: < 4.60
Plasma protein binding (%) [5]: 95.3%
Inhibition (%), RET [6]: 57%
IC50 [7]: > 10000 nM
Inhibition (%), EPHA3 [8]: −2%
AUC0–∞ ([9]; iv, 3 mg/kg): 5458 ng·h/mL
CL ([9]; iv, 3 mg/kg): 9.32 mL/min/kg
Vss ([9]; iv, 3 mg/kg): 0.857 L/kg
t½ ([9]; iv, 3 mg/kg): 1.44 h
AUC0–∞ ([9]; po, 10 mg/kg): 4411 ng·h/mL
Cmax ([9]; po, 10 mg/kg): 1039 ng/mL
F (%) ([9]; po, 10 mg/kg): 24.2%
Tmax ([9]; po, 10 mg/kg): 1.08 h
t½ ([9]; po, 10 mg/kg): 3.85 h
AUC0–∞ ([9]; po, 30 mg/kg): 6365 ng·h/mL
Cmax ([9]; po, 30 mg/kg): 1572 ng/mL
F (%) ([9]; po, 30 mg/kg): 11.7%
Tmax ([9]; po, 30 mg/kg): 0.917 h
t½ ([9]; po, 30 mg/kg): 5.33 h
AUC0–∞ ([9]; po, 100 mg/kg): 9095 ng·h/mL
Cmax ([9]; po, 100 mg/kg): 2127 ng/mL
F (%) ([9]; po, 100 mg/kg): 5.00%
Tmax ([9]; po, 100 mg/kg): 1.25 h
t½ ([9]; po, 100 mg/kg): 5.03 h
Inhibition (%), BLK [10]: 53%
Plasma protein binding (%) [11]: 95.0%
Inhibition (%), HCK [12]: 67%
IC50 [13]: 15.6 nM
Ratio = Papp BL→AP/Papp AP→BL ([14]; Caco-2, 0.1 μM): 2.46
Ratio = Papp BL→AP/Papp AP→BL ([14]; Caco-2, 1 μM): 2.58
Ratio = Papp BL→AP/Papp AP→BL ([14]; Caco-2, 10 μM): 2.92
pIC50 [15]: < 4.60
pIC50 [16]: < 4.60
pIC50 [17]: < 4.60
Up-regulation of CD69 in B cells after anti-IgM ([18]; continuous exposure, 10 nM): completely abolished
Up-regulation of CD69 in B cells after anti-IgM ([18]; inhibitors washed out before BCR stimulation): blocked
Inhibition (%), FGFR3 [19]: 25%
Inhibition (%), FLT3 [20]: 68%
Ratio, EGFR [21, 23]: 225
IC50 ([21]; read-out: IC50 (nM), EGFR, HTRF): 360 nM
Ratio, TEC [22, 23]: 1.3
IC50 ([22]; read-out: IC50 (nM), TEC, HTRF): 10.4 nM
